Results as given in patent US20220273759A1, “PHARMACEUTICAL ASSOCIATION FOR CONVERTING A NEOPLASTIC CELL INTO A NON-NEOPLASTIC CELL AND USES THEREOF” (HISTIDE AG, priority 2015, published 2022).

Key:
Format in all cases: cell-based
[1] = system: human adenocarcinoma cells; experiment: Recoding via quantification of pRB and P53, adenocarcinoma cells; details: Table 6, peptide in association with PET
Description: (§1) The cells were first fixed for 20 min with 4% paraformaldehyde/PBS at 4° C. After fixation, the cells were permeabilized in PBS containing 1% Triton X-100 for 15 min. Protein immunofluorescent visualization was performed by first treating the cells with 1% (v/v) specific monoclonal antibodies for 1 hour at 37° C. Then the samples were incubated with Alexa Fluor® 568 or 647 (F(ab′)2 fragment of IgG(H+L)) during 30 min at room temperature. The cell nuclei were counterstained in 20 ng/mL DAPI for 10 min at room temperature.
For this type of quantification the freeware image analysis ImageJ® software was used. The raw image was first converted to an 8-bit file, and then the unsharp mask feature was used (settings 1:0.2) to remove the image background (rolling ball radius 10). After smoothing, the resulting image, which appears similar to the original photomicrograph but with minimal background, was then converted to a binary image by setting a threshold. Threshold values were determined empirically by selecting a setting, which gave the most accurate binary image for a subset of randomly selected photomicrographs. The cell area was determined by manual delineation on raw fluorescent images. Total contact area and mean contact area per cell were calculated by “analyse particules” in ImageJ®. A minimum of 50 cells per condition were analyzed. […]

[2] = system: Smad1/5/8 signaling pathway; experiment: Growth factor receptor activation: western blot quantification of phospho-smad1/5/8; details: Table 4; human osteosarcoma cells MG63; quantification of western blots of phospho-smad1/5/8
Description: After 24 hours of culture, cells were permeabilized (10% SDS, 25 mM NaCl, 10 nM pepstatin and 10 nM leupeptin in distilled water and loading buffer), boiled for 10 minutes and resolved by reducing PAGE (Invitrogen). Proteins were transferred onto nitrocellulose, blocked, and labeled with HRP-conjugated antibodies (Invitrogen). Integrin αv, α5, +3, α4, β1, β3, β5 and […] were blotted by treating the nitrocellulose with monoclonal anti-integrin (extracellular domain) αv, α5, +3, α4, β1, β3, β5 and β6 antibodies (Santa Cruz Biotechnology). Phosphor-Smad1/5/8 was blotted by treating the nitrocellulose with monoclonal anti-p-Smad1/5/8 (Santa Cruz Biotechnology). For all of the experiments the western blot was performed in triplicate, along with an additional blot for actin and coomassie blue staining to ensure constant protein load among samples.

[3] = system: human osteosarcoma cells, MG63; experiment: Tumor cell recoding via quantification of pRB and p53 (immunofluorescence staining, ImageJ); details: MG63, quantification of pRB
Description: as §1
For this type of quantification the freeware image analysis ImageJ® software was used. The raw image was first converted to an 8-bit file, and then the unsharp mask feature was used (settings 1:0.2) to remove the image background (rolling ball radius 10). After smoothing, the resulting image, which appears similar to the original photomicrograph but with minimal background, was then converted to a binary image by setting a threshold. Threshold values were determined empirically by selecting a setting, which gave the most accurate binary image for a subset of randomly selected photomicrographs. The cell area was determined by manual delineation on raw fluorescent images. Total contact area and mean contact area per cell were calculated by “analyse particules” in ImageJ®. A minimum of 50 cells per condition were analyzed.
Neoplastic cells (in this example osteosarcoma cells) were cultured on pharmaceutical associations comprising PET as a bioactive carrier and one of GFR-binding compounds of SEQ ID NO: 11 to 14, 24 to 26 and 51 to 63. A rapid (24 hours) decrease of the tumor markers was observed (FIG. 7). The adhesion checkpoint then activates the tumor suppressor proteins p53 and pRB. […]

AASKASSSRVKMSPINVLYF (Non-cyclic GFR-binding peptide) [SEQ ID NO: 225]
P53 (%) [1]: 25% | pRB (%) [1]: 12%

AASKASSVPEKMRPVQTRKI (Non-cyclic GFR-binding peptide) [SEQ ID NO: 237]
P53 (%) [1]: 42% | pRB (%) [1]: 22%

AASKASSVPQRLRSVKVAKV (Non-cyclic GFR-binding peptide) [SEQ ID NO: 235]
P53 (%) [1]: 40% | pRB (%) [1]: 26%

AVPKASSAPTKLEPISILYL (Non-cyclic GFR-binding peptide) [SEQ ID NO: 70]
p-Smad1/5/8 (%) [2]: 67% | pRB (%) ([3]; Table 4): 21% | pRB (%) ([3]; Table 5): 21%

GIPEPSSAPVDMRPVQIRKI (Non-cyclic GFR-binding peptide) [SEQ ID NO: 238]
P53 (%) [1]: 40% | pRB (%) [1]: 23%

GIPEPSSAPVEEEPLTTLYY (Non-cyclic GFR-binding peptide) [SEQ ID NO: 232]
P53 (%) [1]: 21% | pRB (%) [1]: 13%

GIPEPSSAPVGQEPLPMVYY (Non-cyclic GFR-binding peptide) [SEQ ID NO: 230]
P53 (%) [1]: 30% | pRB (%) [1]: 19%

GIPEPSSTPTKMSPINMLYF (Non-cyclic GFR-binding peptide) [SEQ ID NO: 94]
p-Smad1/5/8 (%) [2]: 39% | pRB (%) ([3]; Table 4): 9% | pRB (%) ([3]; Table 5): 9%

GIPEPSSVPQKMEPLPIVYY (Non-cyclic GFR-binding peptide) [SEQ ID NO: 75]
p-Smad1/5/8 (%) [2]: 51% | pRB (%) ([3]; Table 4): 10% | pRB (%) ([3]; Table 5): 10%

HVPKPSSAPTKLEPISILYL (Non-cyclic GFR-binding peptide) [SEQ ID NO: 100]
p-Smad1/5/8 (%) [2]: 75% | pRB (%) ([3]; Table 4): 19% | pRB (%) ([3]; Table 5): 19%

KASKASSVPQKLEPLPIVYY (Non-cyclic GFR-binding peptide) [SEQ ID NO: 85]
p-Smad1/5/8 (%) [2]: 22% | pRB (%) ([3]; Table 4): 10% | pRB (%) ([3]; Table 5): 10%

KIPKASSTPTELSPINMLYF (Non-cyclic GFR-binding peptide) [SEQ ID NO: 93]
p-Smad1/5/8 (%) [2]: 47% | pRB (%) ([3]; Table 4): 7% | pRB (%) ([3]; Table 5): 7%

KIPKASSTQVRLRSVKTAKV (Non-cyclic GFR-binding peptide) [SEQ ID NO: 236]
P53 (%) [1]: 37% | pRB (%) [1]: 25%

KIPKASSVPAQLEPLPIVYY (Non-cyclic GFR-binding peptide) [SEQ ID NO: 229]
P53 (%) [1]: 31% | pRB (%) [1]: 23%

KIPKASSVPQELEPLPIVYY (Non-cyclic GFR-binding peptide) [SEQ ID NO: 74]
p-Smad1/5/8 (%) [2]: 44% | pRB (%) ([3]; Table 4): 9% | pRB (%) ([3]; Table 5): 9%

KIPKASSVPTELSPISVLYK (Non-cyclic GFR-binding peptide) [SEQ ID NO: 87]
p-Smad1/5/8 (%) [2]: 32% | pRB (%) ([3]; Table 4): 21% | pRB (%) ([3]; Table 5): 21%

KIPKASSVPTKMKPLSVLYV (Non-cyclic GFR-binding peptide) [SEQ ID NO: 226]
P53 (%) [1]: 31% | pRB (%) [1]: 16%

KVGKASSVPQKLEPLPIVYY (Non-cyclic GFR-binding peptide) [SEQ ID NO: 84]
p-Smad1/5/8 (%) [2]: 33% | pRB (%) ([3]; Table 4): 9% | pRB (%) ([3]; Table 5): 9%

KVGKASSVPTKLEPISILYL (Non-cyclic GFR-binding peptide) [SEQ ID NO: 71]
p-Smad1/5/8 (%) [2]: 66% | pRB (%) ([3]; Table 4): 17% | pRB (%) ([3]; Table 5): 17%

NDEGLESVPTEEEPLTILYY (Non-cyclic GFR-binding peptide) [SEQ ID NO: 79]
p-Smad1/5/8 (%) [2]: 58% | pRB (%) ([3]; Table 4): 17% | pRB (%) ([3]; Table 5): 17%

NDEGLESVPTEERSVKVAKV (Non-cyclic GFR-binding peptide) [SEQ ID NO: 91]
p-Smad1/5/8 (%) [2]: 55% | pRB (%) ([3]; Table 4): 12% | pRB (%) ([3]; Table 5): 12%

NDEGLESVPTEESAISMLYL (Non-cyclic GFR-binding peptide) [SEQ ID NO: 96]
p-Smad1/5/8 (%) [2]: 78% | pRB (%) ([3]; Table 4): 22% | pRB (%) ([3]; Table 5): 22%

NDEGLESVPTEESSLSILFF (Non-cyclic GFR-binding peptide) [SEQ ID NO: 80]
p-Smad1/5/8 (%) [2]: 27% | pRB (%) ([3]; Table 4): 9% | pRB (%) ([3]; Table 5): 9%

RNVQSRPTQVQLKPLSMLYV (Non-cyclic GFR-binding peptide) [SEQ ID NO: 73]
p-Smad1/5/8 (%) [2]: 48% | pRB (%) ([3]; Table 4): 16% | pRB (%) ([3]; Table 5): 16%

RNVQSRPTQVQLSPISILFI (Non-cyclic GFR-binding peptide) [SEQ ID NO: 98]
p-Smad1/5/8 (%) [2]: 34% | pRB (%) ([3]; Table 4): 17% | pRB (%) ([3]; Table 5): 17%

RNVQSRPVPTQLSPISVLYK (Non-cyclic GFR-binding peptide) [SEQ ID NO: 86]
p-Smad1/5/8 (%) [2]: 26% | pRB (%) ([3]; Table 4): 24% | pRB (%) ([3]; Table 5): 24%

RVPSTSSAPTKMKPLSMLYV (Non-cyclic GFR-binding peptide) [SEQ ID NO: 227]
P53 (%) [1]: 32% | pRB (%) [1]: 14%

RVPSTSSAPTKTSATSVLYY (Non-cyclic GFR-binding peptide) [SEQ ID NO: 81]
p-Smad1/5/8 (%) [2]: 34% | pRB (%) ([3]; Table 4): 17% | pRB (%) ([3]; Table 5): 17%

RVPSTSSVPAEESNITVQIM (Non-cyclic GFR-binding peptide) [SEQ ID NO: 234]
P53 (%) [1]: 45% | pRB (%) [1]: 22%

RVPSTSSVPEKMEPLTMLYY (Non-cyclic GFR-binding peptide) [SEQ ID NO: 231]
P53 (%) [1]: 22% | pRB (%) [1]: 18%

SIPKASSTPTELSPINMLYF (Non-cyclic GFR-binding peptide) [SEQ ID NO: 64]
p-Smad1/5/8 (%) [2]: 37% | pRB (%) ([3]; Table 4): 23% | pRB (%) ([3]; Table 5): 23%

SIPKASSVPQELEPLPIVYY (Non-cyclic GFR-binding peptide) [SEQ ID NO: 76]
p-Smad1/5/8 (%) [2]: 54% | pRB (%) ([3]; Table 4): 8% | pRB (%) ([3]; Table 5): 8%

SSVKSQPSRVHHKPLSMLYV (Non-cyclic GFR-binding peptide) [SEQ ID NO: 72]
p-Smad1/5/8 (%) [2]: 47% | pRB (%) ([3]; Table 4): 19% | pRB (%) ([3]; Table 5): 19%

SSVKSQPSRVHHSPISILFI (Non-cyclic GFR-binding peptide) [SEQ ID NO: 97]
p-Smad1/5/8 (%) [2]: 39% | pRB (%) ([3]; Table 4): 14% | pRB (%) ([3]; Table 5): 14%

STPPTSSTPTKMSNITTQIM (Non-cyclic GFR-binding peptide) [SEQ ID NO: 233]
P53 (%) [1]: 43% | pRB (%) [1]: 23%

STPPTSSVSQKMKPLSILYV (Non-cyclic GFR-binding peptide) [SEQ ID NO: 228]
P53 (%) [1]: 26% | pRB (%) [1]: 18%

TKPTSTPTKLSPINMLYF (Non-cyclic GFR-binding peptide) [SEQ ID NO: 65]
p-Smad1/5/8 (%) [2]: 36% | pRB (%) ([3]; Table 4): 10% | pRB (%) ([3]; Table 5): 10%

TQVKMRPVQVRKI (Non-cyclic GFR-binding peptide) [SEQ ID NO: 92]
p-Smad1/5/8 (%) [2]: 44% | pRB (%) ([3]; Table 4): 8% | pRB (%) ([3]; Table 5): 8%

TVPKPSSAPTQLRSVKVAKV (Non-cyclic GFR-binding peptide) [SEQ ID NO: 83]
p-Smad1/5/8 (%) [2]: 35% | pRB (%) ([3]; Table 4): 12% | pRB (%) ([3]; Table 5): 12%

VPTGQSAISMLYL (Non-cyclic GFR-binding peptide) [SEQ ID NO: 95]
p-Smad1/5/8 (%) [2]: 52% | pRB (%) ([3]; Table 4): 17% | pRB (%) ([3]; Table 5): 17%

VSQDLRSVKVAKV (Non-cyclic GFR-binding peptide) [SEQ ID NO: 89]
p-Smad1/5/8 (%) [2]: 36% | pRB (%) ([3]; Table 4): 17% | pRB (%) ([3]; Table 5): 17%

VVPKPSSAPTQLEPISILYL (Non-cyclic GFR-binding peptide) [SEQ ID NO: 69]
p-Smad1/5/8 (%) [2]: 39% | pRB (%) ([3]; Table 4): 20% | pRB (%) ([3]; Table 5): 20%

YVPKPSSAPTKLNAISVLYF (Non-cyclic GFR-binding peptide) [SEQ ID NO: 99]
p-Smad1/5/8 (%) [2]: 66% | pRB (%) ([3]; Table 4): 21% | pRB (%) ([3]; Table 5): 21%

YVPKPSSTPTKLSPINMLYF (Non-cyclic GFR-binding peptide) [SEQ ID NO: 66]
p-Smad1/5/8 (%) [2]: 38% | pRB (%) ([3]; Table 4): 8% | pRB (%) ([3]; Table 5): 8%
